Measured values from patent publication US8075874B2, “Methods for disinfecting and removing smear layer from tooth surfaces” (Dentsply International, Inc., priority 2002, dated 2011).

Tests used:
Enterococcus faecalis [1] = test: Zone of inhibition on inoculated TSA plates; type: cell-based; conditions: E. faecalis; for bactericidal effect upon dilution (zone of inhibition): diluted five- or ten-fold
Method: In the first test, the zone of inhibition was measured on plates inoculated with Enterococcus faecalis. An overnight culture of E. faecalis (ATCC 4082) was standardized to 0.11 optical density (O.D.) measured at 570 nm. One hundred microliters of the microorganism was spread onto a trypticase soy agar (TSA) plate with the use of a sterile L-shaped glass rod. One-quarter inch sterile S & S filter paper (Schleicher & Schuell) was placed in each of the four quadrants of the TSA plate. […] Eight replicates were prepared for each of the sample solutions. The plates were incubated overnight at 37° C. for 24 hours and the zones of inhibition were measured in millimeters.

Enterococcus faecalis [2] = test: Minimum inhibitory concentration (serial dilution, turbidity); type: cell-based
Method: In the second test, the minimum inhibitory concentration (MIC) was measured. E. faecalis was cultured overnight and the concentration was adjusted to 0.11 O.D. at 570 nm. The test solutions were serially diluted from 1:2 up to 1:2048 dilutions. One ml of 2× trypticase soy broth (TSB) and the same amount of a test solution were mixed in various tubes. One hundred microliters of the standardized E. faecalis was added into each of the test tubes and were incubated overnight at 37° C. The presence or absence of turbidity was determined the following day.

[3] = Removal of smear layer from root canal walls (SEM); conditions: extracted human teeth; 5 min contact; ADD group instrumented with 1% sodium hypochlorite as irrigant
Excerpt: Extracted maxillary and mandibular human teeth were used for this study. The working lengths of these teeth were between 21-25 millimeters. The teeth were scaled of any calculus and other surface debris (soft tissue and/or alveolar bone) using hand scalers. After preparing conventional access preparations through the incisal or occlusal surfaces of the test teeth, a K-type file (size 10) was used to determine the working length of each tooth by penetrating the apical foramen and pulling back to the clinical apical foramen. […] The apex of each tooth was enlarged to size 30 files.
After complete cleaning and shaping, the canals were irrigated with 1 ml of NaOCl and a barbed broach wrapped with cotton was taken to the canal terminus and left for five minutes to ensure uniform direct contact of the irrigant with the entire canal. Upon removal of the barbed broach, the canal was irrigated with 4 ml of NaOCl and rinsed with 10 ml of distilled water. Group 2: NSET was performed using 1% sodium hypochlorite as root canal irrigant. […] Upon removal of the barbed broach, the canal was irrigated with 4 ml of ADD and rinsed with 10 ml of distilled water. […] The presence or absence of smear layer at the coronal, middle, and apical portion of each canal was evaluated. The erosion of dentinal tubules was also assessed at different levels of each canal.

[4] = Removal of smear layer from coronal cavity preparations (SEM); conditions: third molars, Class I preparations; solution left 5 minutes
Method: Sound third molars were collected and stored in deionized water. Class I preparations were made following conventionally accepted procedures in the occlusal surfaces of the teeth. The teeth were randomly divided into two groups. […] After this treatment each preparation was rinsed with copious amounts of water to eliminate the residual effect of sodium hypochlorite. Group 2: ADD solution was left in the cavity for 5 minutes. After this treatment each preparation was rinsed with copious amounts of distilled water to eliminate the residual effect of ADD. After irrigation, the crowns were split in half using a diamond saw and constant water spray. Half of each sample was placed into a gluteraldehyde solution for 24 h. The fixed specimens were then rinsed twice by a sodium buffered solution (pH 7.2), treated with osmium tetraoxide for one hour, rinsed with ascending concentrations of ethyl alcohol 30%-100%, and then placed in a dessicator for 24 h. […] The presence or absence of smear layer on the walls of each cavity was evaluated. The erosion of dentinal tubules was also assessed.

[5] = Removal of smear layer from prepared crown preparations (SEM); conditions: saturated cotton pellet left 5 minutes
Method: Sound third molars were collected and stored in deionized water. Crown preparations were made following conventionally accepted procedures. The samples were randomly divided into two groups.
After this treatment each preparation was rinsed with copious amounts of distilled water to eliminate the residual effect of sodium hypochlorite.
Group 2: A cotton pellet saturated with ADD solution was left on the crown preparations for 5 minutes. After this treatment each preparation was rinsed with copious amounts of distilled water to eliminate residual ADD.
After irrigation, the crown preparations were split in half using a diamond saw and constant water spray. Half of each sample was placed into a gluteraldehyde solution for 24 h. The fixed specimens were then rinsed twice by a sodium buffered solution (pH 7.2), treated with osmium tetraoxide for one hour, rinsed with ascending concentrations of ethyl alcohol 30%-100%, and then placed in a dessicator for 24 h. Finally, each specimen was mounted on a special button, and coated with 25 μm of gold-palladium (Au—Pd) (Wakabayashi et al., 1995). The presence or absence of smear layer on the walls of each cavity was evaluated. The erosion of dentinal tubules was also assessed.

[6] = Removal of smear layer from root surfaces of teeth (SEM); conditions: saturated cotton pellet left 5 minutes
Method: The coronal one-third root surfaces of these teeth were curetted following conventionally accepted procedures. The samples were randomly divided into two groups.
After this treatment each root surface was rinsed with copious amounts of distilled water to eliminate the residual effect of sodium hypochlorite.
Group 2: A cotton pellet saturated with ADD solution was left on the root surface preparations for 5 minutes. After this treatment each preparation was rinsed with copious amounts of distilled water to eliminate the residual effect of ADD.
After irrigation, the entire tooth was split in half using a diamond saw and constant water spray. Half of each sample was placed into a gluteraldehyde solution for 24 h. The fixed specimens were then rinsed twice by a sodium buffered solution (pH 7.2), treated with osmium tetraoxide for one hour, rinsed with ascending concentrations of ethyl alcohol 30%-100%, and then placed in a dessicator for 24 h. Finally, each specimen was mounted on a special button, and coated with 25 μm of gold-palladium (Au—Pd) (Wakabayashi et al., 1995). The presence or absence of smear layer on the root surfaces was evaluated. The erosion of dentinal tubules was also assessed.

[7] = Removal of smear layer from root end cavity preparations (SEM); parameters: species or system human; conditions: solution left in cavity five minutes
Method: Extracted, human single-rooted teeth were used in this part of the experiment.
The working length of each canal was determined by placing and moving a #15 K file apically in the canal until it exited from the apical foramen.
The access cavities were closed with Cavit. The roots were then wrapped in moist gauze and stored in a closed glass bottle at room temperature and 100% humidity for one week.
Two coats of nail polish were applied to the external surface of each root.
Apical cavity preparations were made in each of the roots. A #1 round bur in a high-speed handpiece with water coolant was used to create a small opening into the gutta-percha filling material.
The roots were then randomly divided into two groups. […] The solution was left in the cavity for five minutes and then rinsed with 10 ml of distilled water. In Group 2, the preparations were rinsed with 5 ml of ADD. This solution was also left in the root end cavities for five minutes and then rinsed with 5 ml of distilled water. After drying with paper points, the roots were split in halves using a slow speed diamond saw (Labut Agar Scientific, Cambridge, England).
Half of each sample was placed into a gluteraldehyde solution for 24 h. […] The presence or absence of smear layer on the root end cavity preparations was evaluated. The erosion of dentinal tubules was also assessed.

[8] = system: root canals infected with whole saliva; test: Disinfection of human root canals infected with whole saliva
Excerpt: It will be apparent to those of skill in the art that a solution such as the one described herein (i.e., one that has improved biocompatibility and is effective in a shorter period of time than previously known treatments) is highly desirable, particularly in the health care fields. Studies have also shown that, unlike other previously known dental irrigants, the solution of the present invention maintains the desired antimicrobial effect at dilutions up to 1:200. […] In a further study undertaken to evaluate the antimicrobial properties of the presently described solution, human root canals were infected with whole saliva and then treated with either 5.25% NaOCl or a solution of doxycycline, polysorbate 80, and citric acid. While the NaOCl effectively disinfected only 37 out of 60 teeth, the solution of the present invention disinfected 59 out of 60 teeth. The importance and desirability of such improved antimicrobial properties can be easily appreciated, particularly by those of skill in the art.

Row | Compound | bactericidal effect upon dilution (zone of inhibition) (Enterococcus faecalis [1]) | dilution up to which solution is effective (minimum inhibitory concentration test) (Enterococcus faecalis [2]; E. faecalis, overnight at 37° C., turbidity) | dilution limit of antimicrobial / bactericidal effect (Enterococcus faecalis [2]; summary statement in description) | presence or absence of smear layer on root canal walls [3] | presence or absence of smear layer on cavity walls [4] | presence or absence of smear layer on crown preparations [5] | presence or absence of smear layer on root surfaces [6] | presence or absence of smear layer on root end cavity preparations [7] | zone of inhibition, undiluted versus diluted (Enterococcus faecalis [1]; undiluted, 1:5, 1:10) | teeth disinfected [8]
1 | O=C(O)CN(CCN(CC(=O)O)CC(=O)O)CC(=O)O [EDTA, ethylenediamine tetraacetic acid] | no bactericidal properties | no antibacterial effects at any dilution level | ineffective in anything other than an undiluted state | – | – | – | – | – | – | –
2 | [Na+].[O-]Cl [5.25% NaOCl, sodium hypochlorite] | some bactericidal effect | – | – | presence of smear layer on the entire root canal walls of all teeth | presence of smear layer on the walls of all teeth | presence of smear layer on the surface of all crowns | presence of smear layer on the surface of all roots | presence of smear layer on the surface of all cavity preparations | more effective when undiluted than at 1:5 or 1:10 dilution | 37 out of 60
